Data set [1] deals with reserpine induced hypothermia. In words: Antagonism of reserpine induced hypothermia in mice (antireserpine / antidepressant activity). Particulars: for Antidepressant activity (in words): according to pharmacological testing, reversal of reserpine hypothermia in mice. The data set is classed as in vivo.
Method: (§1) The compounds were administered intraperitoneally and the activities of the compounds were compared with those of Amitriptyline.
For data set [2], the system named is electroshock induced tonic extensor. The data set is described as follows: Antagonism of electroshock induced tonic extensor (anticonvulsant activity). The data set is classed as in vivo. Conditions: Mus musculus, ip; mice; dose preventing 50% of response.
Method: as §1
In data set [3] the test system is neurological deficit as measured by traction tests. The data set is described as follows: Traction test (CNS depressant activity, muscle relaxant action). In kind it is in vivo. Conditions: mice; for ED50: Mus musculus, ip, traction test, dose preventing 50% of response.
Method: as §1
Data set [4] concerns spontaneous motor activity. The data set is described as follows: Spontaneous motor activity measured by ANIMEX apparatus (CNS depressant activity). The data set is classed as in vivo. Conditions: Mus musculus, ip, mice, i.p., dose preventing 50% of response, read-out: Spontaneous motor activity depression ED50.
Method: as §1
Another data set concerns tremorine induced tremor. In words: Tremorine induced tremor (central anticholinergic effect). The data set is classed as in vivo. Particulars: mice; for ED50: Mus musculus, ip, i.p., dose preventing 50% of response, read-out: Antitremorine effect ED50.
The nature of a further data set: in vivo. Particulars: mouse, ip.
The conditions of data set [5]: mice, in b83 as compared with Amitriptyline at the same relative potency.

Usually ED50 stands for the dose that gives a 50% effect, or the effect in half of the subjects. Broadly, the LD50 is the dose at which mortality reaches 50%.

Where a name gives a salt, the structure may show the parent alone. Read-outs that look alike come from different tables or passages of the source.

Method for tremorine induced tremor: as §1

`CN(C)CCOc1ccccc1Cc1ccccc1` [2-(2-dimethylaminoethoxy) diphenylmethane]: in data set [1], the “Antidepressant activity (in words)” value is given as “do not possess antidepressant activity”.

`CNCCOc1ccccc1Cc1ccccc1` [2-(2-methylaminoethoxy) diphenylmethane]: the “Antidepressant activity (in words)” value in data set [1] was “do not possess antidepressant activity”.

For `CN(C)CCCOc1ccccc1Cc1ccccc1` [2-(3-dimethylaminopropoxy)-diphenylmethane], in data set [1], the “Antidepressant activity (in words)” value is given as “do not possess antidepressant activity”.

In the case of `CNCCCOc1ccccc1Cc1ccccc1` [2-(3-methylaminopropoxy) diphenylmethane hydrochloride], the “Antireserpine activity, Relative Potency” value in data set [1] (mice, i.p., reserpine 5 mg/kg i.p., Amitriptyline = 1) was 0.56. Also, the ED50 was determined as 40 mg/kg in data set [2], 65 mg/kg in data set [3], 90 mg/kg in data set [4] and 42 mg/kg with tremorine induced tremor. The 50% lethal dose (LD50) in the data set “in vivo” turned out to be 160 mg/kg.

As for `CNCCCOc1ccccc1Cc1ccccc1` [2-(3-methylaminopropoxy) diphenylmethane], the “Antidepressant activity (in words)” value in data set [1] is “high level of antidepressant activity”. For the same molecule, in data set [3] (as compared with Amitriptyline at the same relative potency, traction test and spontaneous motor activity), the “CNS depressant action (in words)” value is given as “weaker CNS depressant”. The “Anticholinergic action (in words)” value with tremorine induced tremor (as compared with Amitriptyline at the same relative potency) is “weaker CNS depressant and anticholinergic action”. In addition, the “Toxicity (in words)” value is “low level of toxicity” in data set [5] and “lower toxicity” in data set [5] (listed as 2-(3-methylaminopropoxy)diphenylmethane).

Turning to `CN(C)CCC=C1c2ccccc2CCc2ccccc21` [Amitriptyline, reference compound], the ED50 was 16 mg/kg in data set [2], 15 mg/kg in data set [3], 18 mg/kg in data set [4] and 4 mg/kg in the data set on tremorine induced tremor. In the data set “in vivo”, this molecule had an LD50 of 65 mg/kg.

(Values after patent US4024282A, “Pharmaceutically active 2-(3-alkylaminopropoxy)diphenylmethanes” (Mitsubishi Chemical Industries Ltd., priority 1975, dated 1977).)
